# Data from patent publication US20250257034A1, “INDOLE DERIVATIVES AS SEROTONERGIC AGENTS USEFUL FOR THE TREATMENT OF DISORDERS RELATED THERETO” (priority 2023, published 2025).
# “And” between values parts separate entries of the source, which are not always exact repeats. Identical values can stand only once. Like-named read-outs stand apart in the source and are kept apart here.
# Legend:
# [1] = Pharmacokinetic studies in rat (i.v.); format: in vivo; conditions: rat plasma; for Apparent t1/2 / half-life: estimated from 2 points only; for concentration at 0.25 h / concentration at 1 h / half-life / AUC(0-t) / concentration at 4 h: male, Sprague-Dawley, rat, plasma, iv; for concentration at 0.25 h / concentration at 1 h / concentration at 4 h: read-out: Plasma concentration; for half-life: read-out: Apparent t1/2 (converted); for AUC(0-t): read-out: AUC0-tlast
# Experimental: Animals: Male Sprague-Dawley rats (˜225-350 g) from Charles River Labs were acclimatized for a minimum of 5 days prior to start of study procedures. Body weights were recorded on the day of dosing.
# Any abnormalities were documented including presence/absence of wet dog shakes/back muscle contractions (WDS/BMC).
# Dosing: Formulations were administered intravenously (i.v.) via the tail vein using a 25 G needle connected to a 1 cc syringe.
# The Compounds of Formula (I) were freshly prepared at the appropriate concentrations in 5% Tween-80 in saline.
# Blood collection time (h): 0.25, 1 and 4.
# Volume/time-point: ˜0.25 mL […] (saphenous vein).
# Instrumentation: AB Sciex QTRAP 4000 or 6500 MS/MS system equipped with an LC system with a binary pump, a solvent degasser, a thermostatted column compartment and a multiplate autosampler.
# Analysis software: Phoenix® WinNonlin® 8.3 (Pharsight, Certara, Mountainview, CA).
# Analysis methods: non-compartmental analysis, linear up/log down trapezoidal rule.
# PK parameters: t1/2 and AUC0-tlast were be estimated.
# Volume/time-point: ˜0.25 mL (saphenous vein).
# PK parameters: t1/2 and AUC0-tlast were estimated.
# [2] = Rat liver microsomes stability; format: in vitro ADME; conditions: Rat liver microsomes; for microsomal CLint at 2 μM / half-life at 2 μM / CLint scaled at 2 μM: male; for microsomal CLint at 2 μM: rat, liver microsomes, read-out: CLint (μL/min/mg protein); for microsomal CLint at 2 μM / half-life at 2 μM: 2 μM compound, 0.5 mg/mL microsomes, 1 mM NADPH; for half-life at 2 μM: 37° C; for CLint scaled at 2 μM: read-out: Scaled-up CLint
# In short: (§1)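 In this assay, 2 μM compound is incubated with NADPH-supplemented liver microsomes (human pooled; male rat; male mouse) at 37° C for up to 60 min. Depletion is followed by LC-MS/MS, and CLint is expressed per mg microsomal protein.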
# [3] = Human liver microsomes stability; format: in vitro ADME; conditions: Human liver microsomes; for half-life at 2 μM / microsomal CLint at 2 μM: 2 μM compound, 0.5 mg/mL microsomes, 1 mM NADPH; for half-life at 2 μM: 37° C; for microsomal CLint at 2 μM: read-out: CLint (μL/min/mg protein); for CLint scaled at 2 μM: read-out: Scaled-up CLint
# In short: as §1
# [4] = I-1 1.10 mg/kg i.v., individual rats R04-R06, 1.1 mg/kg
# [5] = 1.1 mg/kg, I-1 1.10 mg/kg i.v., Mean ± SD
# [6] = 1.1 mg/kg, I-1 1.10 mg/kg i.v., individual rats R04-R06
# [7] = I-12 1.2 mg/kg i.v., individual rats R01-R03, 1.2 mg/kg
# [8] = 1.2 mg/kg, I-12 1.2 mg/kg i.v., individual rats R01-R03
# [9] = I-13 1.14 mg/kg i.v., individual rats R04-R06, 1.14 mg/kg
# [10] = 1.14 mg/kg, I-13 1.14 mg/kg i.v., individual rats R04-R06
structure (smiles),measurement,setting,value
"[2H]C([2H])([2H])N(CCc1c[nH]c2ccc(SC)cc12)C([2H])([2H])[2H] [Compound I-1, N,N-Bis(methyl-d3)-2-(5-(methylthio)-1H-indol-3-yl)ethan-1-amine]",Plasma concentration,"[1]; I-1 1.10 mg/kg i.v., 0.25 h, individual rats R04-R06, 1.1 mg/kg",15.7 ng/mL and 16.9 ng/mL
same,Plasma concentration,"[1]; I-1 1.10 mg/kg i.v., 1 h, individual rats R04-R06, 1.1 mg/kg",0.835 ng/mL and 0.354 ng/mL and 0.298 ng/mL
same,Plasma concentration (ng/mL),"[1]; I-1 1.10 mg/kg i.v., 4 h, individual rats R04-R06",BLQ (BLQ denotes below the lower limit of quantitation (0.5 ng/mL))
same,AUC0-tlast,[1]; [4],10.9 ng·h/mL and 12.0 ng·h/mL
same,Apparent t1/2,[1]; [4],8.22 min and 7.74 min
same,concentration at 0.25 h,"[1]; 1.1 mg/kg, I-1 1.10 mg/kg i.v., 0.25 h, Mean ± SD",16.4 ± 0.624 ng/mL
same,concentration at 0.25 h,"[1]; 1.1 mg/kg, I-1 1.10 mg/kg i.v., 0.25 h, individual rats R04-R06",16.6 ng/mL
same,concentration at 1 h,"[1]; 1.1 mg/kg, I-1 1.10 mg/kg i.v., 1 h, Mean ± SD",0.496 ± 0.295 ng/mL
same,half-life,[1]; [5],8.82 ± 1.44 min
same,AUC(0-t),[1]; [5],11.3 ± 0.587 ng·h/mL
same,half-life,[1]; [6],10.4 min
same,AUC(0-t),[1]; [6],11.1 ng·h/mL
same,Predicted hepatic CL,[2],>50.17 mL/min/kg
same,microsomal CLint at 2 μM,[2],> 307 µL/min/mg
same,half-life at 2 μM,[2],< 4.51 min
same,CLint scaled at 2 μM,[2],> 550 mL/min/kg
same,Predicted hepatic CL,[3],19.31 mL/min/kg
same,half-life at 2 μM,[3],6.04 min
same,microsomal CLint at 2 μM,[3],230 µL/min/mg
same,CLint scaled at 2 μM,[3],288 mL/min/kg
"CCN(CC)CCc1c[nH]c2ccc(SC)cc12 [Compound I-12, N,N-Diethyl-2-(5-(methylthio)-1H-indol-3-yl)ethan-1-amine]",Plasma concentration,"[1]; I-12 1.2 mg/kg i.v., 0.25 h, individual rats R01-R03, 1.2 mg/kg",53.6 ng/mL and 72.4 ng/mL and 30.1 ng/mL
same,Plasma concentration,"[1]; I-12 1.2 mg/kg i.v., 1 h, individual rats R01-R03, 1.2 mg/kg",36.4 ng/mL and 29.7 ng/mL
same,Plasma concentration,"[1]; I-12 1.2 mg/kg i.v., 4 h, individual rats R01-R03, 1.2 mg/kg",3.88 ng/mL and 2.55 ng/mL and 6.48 ng/mL
same,AUC0-tlast,[1]; [7],97.8 ng·h/mL and 75.7 ng·h/mL
same,Apparent t1/2,[1]; [7],46.7 min
same,concentration at 0.25 h,"[1]; 1.2 mg/kg, I-12 1.2 mg/kg i.v., 0.25 h, Mean ± SD",52 ± 21.2 ng/mL
same,concentration at 1 h,"[1]; 1.2 mg/kg, I-12 1.2 mg/kg i.v., 1 h, Mean ± SD",31.2 ± 4.6 ng/mL
same,concentration at 1 h,"[1]; 1.2 mg/kg, I-12 1.2 mg/kg i.v., 1 h, individual rats R01-R03",27.6 ng/mL
same,concentration at 4 h,"[1]; 1.2 mg/kg, I-12 1.2 mg/kg i.v., 4 h, Mean ± SD",4.3 ± 2 ng/mL
same,AUC(0-t),"[1]; 1.2 mg/kg, I-12 1.2 mg/kg i.v., Mean ± SD",84.7 ± 11.6 ng·h/mL
same,half-life,[1]; [8],60.6 min
same,AUC(0-t),[1]; [8],80.6 ng·h/mL
same,half-life,"[1]; 1.2 mg/kg, I-12 1.2 mg/kg i.v., mean (n = 2)",53.6 min
same,Predicted hepatic CL,[2],30.14 mL/min/kg
same,microsomal CLint at 2 μM,[2],37 µL/min/mg
same,half-life at 2 μM,[2],37.4 min
same,CLint scaled at 2 μM,[2],66.4 mL/min/kg
same,Predicted hepatic CL,[3],15.84 mL/min/kg
same,half-life at 2 μM,[3],25.8 min
same,microsomal CLint at 2 μM,[3],53.8 µL/min/mg
same,CLint scaled at 2 μM,[3],67.5 mL/min/kg
"CCN(C)CCc1c[nH]c2ccc(SC)cc12 [Compound I-13, N-Ethyl-N-methyl-2-(5-(methylthio)-1H-indol-3-yl)ethan-1-amine]",Plasma concentration,"[1]; I-13 1.14 mg/kg i.v., 0.25 h, individual rats R04-R06, 1.14 mg/kg",45.7 ng/mL and 86.5 ng/mL and 113 ng/mL
same,Plasma concentration,"[1]; I-13 1.14 mg/kg i.v., 1 h, individual rats R04-R06, 1.14 mg/kg",46.7 ng/mL and 29.7 ng/mL
same,Plasma concentration,"[1]; I-13 1.14 mg/kg i.v., 4 h, individual rats R04-R06, 1.14 mg/kg",3.51 ng/mL and 1.11 ng/mL and 0.449 ng/mL
same,AUC0-tlast,[1]; [9],109 ng·h/mL and 103 ng·h/mL
same,Apparent t1/2,[1]; [9],28.6 min
same,concentration at 0.25 h,"[1]; 1.14 mg/kg, I-13 1.14 mg/kg i.v., 0.25 h, Mean ± SD",81.7 ± 33.9 ng/mL
same,concentration at 1 h,"[1]; 1.14 mg/kg, I-13 1.14 mg/kg i.v., 1 h, Mean ± SD",42.9 ± 11.7 ng/mL
same,concentration at 1 h,"[1]; 1.14 mg/kg, I-13 1.14 mg/kg i.v., 1 h, individual rats R04-R06",52.2 ng/mL
same,concentration at 4 h,"[1]; 1.14 mg/kg, I-13 1.14 mg/kg i.v., 4 h, Mean ± SD",1.69 ± 1.61 ng/mL
same,AUC(0-t),"[1]; 1.14 mg/kg, I-13 1.14 mg/kg i.v., Mean ± SD",105 ± 3.64 ng·h/mL
same,half-life,[1]; [10],35.1 min
same,AUC(0-t),[1]; [10],102 ng·h/mL
same,half-life,"[1]; 1.14 mg/kg, I-13 1.14 mg/kg i.v., mean (n = 2)",31.9 min
same,Predicted hepatic CL,[2],42.35 mL/min/kg
same,microsomal CLint at 2 μM,[2],102 µL/min/mg
same,half-life at 2 μM,[2],13.7 min
same,CLint scaled at 2 μM,[2],182 mL/min/kg
same,Predicted hepatic CL,[3],18.16 mL/min/kg
same,half-life at 2 μM,[3],11.7 min
same,microsomal CLint at 2 μM,[3],118 µL/min/mg
same,CLint scaled at 2 μM,[3],148 mL/min/kg
